Earlier results on two compounds are cited in patent US20240099995A1, “METHOD OF PREPARING A TOPICAL PHARMACEUTICAL COMPOSITION” (PHEBRA PTY LTD, priority 2021, published 2024).

Read-outs that look alike come from different tables or passages of the source.

Assay in series [1]: not given
This is another data set of the same source.

As for `CNCC(O)c1ccc(O)c(O)c1` (centres unmarked) [adrenaline], the concentration loss by setting is: (4° C. and above, after 2 days) 100%; (22° C., within 90 minutes) 100%. Besides, the time stable entry (stored in a freezer, acidic and basic conditions) is on record as “at least 28 days”.
Take `CCN(CC)CC(=O)Nc1c(C)cccc1C` [lignocaine]: the entries for the “duration of topical anesthesia” value in series [1] (with adrenaline) and in series [1] (without adrenalin) were 120 to 360 min and 30 to 60 min, respectively.
